Assay results from patent US9695155B2, “Herbicidal substituted pyrimidinyloxy benzene compounds” (E. I. DU PONT DE NEMOURS AND COMPANY, priority 2013, dated 2017).

Tests used:
[1] = tested on: wild buckwheat; assay: Test D preemergence; format: in vivo, Polygonum convolvulus; conditions: Fallopia convolvulus, pre-emergence, scale 0-100, read-out: Plant response rating, Buckwheat, Wild
Outline: (§1)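 Plant response is a visual score from 0 (no effect) to 100 (complete control) relative to controls. Plants were kept in a controlled growth environment for 7 to 21 days after spraying. Preemergence treatments went onto silt loam soil; postemergence ones onto 1- to 4-leaf seedlings.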

[2] = tested on: bluegrass; assay: Test D postemergence; format: in vivo, Poa annua; conditions: Poa annua, post-emergence, Postemergence, scale 0 to 100 (0 no effect, 100 complete control), read-out: Plant response rating, Bluegrass
Outline: as §1

[3] = tested on: canarygrass; assay: Test D postemergence; format: in vivo, Phalaris minor; conditions: Phalaris minor, post-emergence, scale 0 to 100 (0 no effect, 100 complete control), read-out: Plant response rating, Canarygrass
Outline: as §1

[4] = tested on: bromegrass, downy; assay: Test D postemergence; format: in vivo, Bromus tectorum; conditions: Bromus tectorum, post-emergence, Postemergence, scale 0 to 100 (0 no effect, 100 complete control), read-out: Plant response rating, Bromegrass, Downy
Outline: as §1

[5] = tested on: speedwell; assay: Test D postemergence; format: in vivo, Veronica persica; conditions: Veronica persica, post-emergence, scale 0 to 100 (0 no effect, 100 complete control), read-out: Plant response rating, Speedwell
Outline: as §1

[6] = tested on: spring barley; assay: Test D postemergence; format: in vivo, Hordeum vulgare; conditions: Hordeum vulgare, post-emergence, Postemergence, scale 0 to 100 (0 no effect, 100 complete control), read-out: Plant response rating, Barley, Spring
Outline: as §1

[7] = tested on: winter barley; assay: Test D postemergence; format: in vivo, Hordeum vulgare; conditions: Hordeum vulgare, post-emergence, Postemergence, scale 0 to 100 (0 no effect, 100 complete control), read-out: Plant response rating, Barley, Winter
Outline: as §1

[8] = tested on: wild buckwheat; assay: Test D postemergence; format: in vivo, Polygonum convolvulus; conditions: Fallopia convolvulus, post-emergence, Postemergence, scale 0 to 100 (0 no effect, 100 complete control), read-out: Plant response rating, Buckwheat, Wild
Outline: as §1

[9] = tested on: wild radish; assay: Test D postemergence; format: in vivo, Raphanus raphanistrum; conditions: Raphanus raphanistrum, post-emergence, scale 0 to 100 (0 no effect, 100 complete control), read-out: Plant response rating, Radish, Wild
Outline: as §1

[10] = tested on: waterhemp_RES2 (ALS & HPPD resistant common waterhemp); assay: Test E postemergence; format: in vivo, Amaranthus rudis; conditions: Amaranthus tuberculatus, post-emergence, read-out: Plant response rating, Waterhemp_RES2
Outline: (§2)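 Compound in a non-phytotoxic solvent mixture with surfactant was applied preemergence to seeds in silt loam soil, or postemergence to plants 2 to 18 cm tall grown in peat-based potting medium. Plants were kept in a greenhouse for 14 to 21 days, then rated visually against untreated controls on a 0 (no effect) to 100 (complete control) scale.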

[11] = tested on: waterhemp; assay: Test E postemergence; format: in vivo, Amaranthus rudis; conditions: Amaranthus tuberculatus, post-emergence, Postemergence, scale 0 to 100, read-out: Plant response rating, Waterhemp
Outline: as §2

[12] = tested on: barnyardgrass; assay: Test E postemergence; format: in vivo, Echinochloa crus-galli; conditions: Echinochloa crus-galli, post-emergence, read-out: Plant response rating, Barnyardgrass
Outline: as §2

[13] = tested on: field bindweed; assay: Test E postemergence; format: in vivo, Convolvulus arvensis; conditions: Convolvulus arvensis, post-emergence, read-out: Plant response rating, Field Bindweed
Outline: as §2

[14] = Postemergence, 31 g ai/ha, scale 0 to 100
[15] = Postemergence, 62 g ai/ha, scale 0 to 100
[16] = Postemergence, 125 g ai/ha, scale 0 to 100
[17] = Postemergence, 250 g ai/ha, scale 0 to 100
[18] = postemergence, 16 g ai/ha, scale 0 to 100, 0 no effect, 100 complete control

Work on `N#Cc1cccc(Oc2ncc(Br)cn2)c1-n1cc(C(F)(F)F)cn1` [Compound 59, 3-[(5-bromo-2-pyrimidinyl)oxy]-2-[4-(trifluoromethyl)-1H-pyrazol-1-yl]benzonitrile] yielded a pest or weed control at 31 g/ha ([1]; 31 g ai/ha) of 60%, a pest or weed control at 62 g/ha ([1]; 62 g ai/ha) of 100% and a pest or weed control at 125 g/ha ([1]; 125 g ai/ha) of 100%. The pest or weed control at 250 g/ha ([1]; 250 g ai/ha) was 100%, the pest or weed control at 31 g/ha ([2]; 31 g ai/ha) was 15% and the pest or weed control at 62 g/ha ([2]; 62 g ai/ha) was 15%. The pest or weed control at 125 g/ha ([2]; 125 g ai/ha) was 20%, the pest or weed control at 250 g/ha ([2]; 250 g ai/ha) was 40% and the pest or weed control at 31 g/ha ([3]; 31 g ai/ha) was 20%. For the same compound, the pest or weed control at 62 g/ha ([3]; 62 g ai/ha) was 30%, the pest or weed control at 125 g/ha ([3]; 125 g ai/ha) was 35% and the pest or weed control at 250 g/ha ([3]; 250 g ai/ha) was 35%. It also gave a pest or weed control at 31 g/ha ([4]; 31 g ai/ha) of 20%, a pest or weed control at 62 g/ha ([4]; 62 g ai/ha) of 20% and a pest or weed control at 125 g/ha ([4]; 125 g ai/ha) of 25%. For the same compound, the pest or weed control at 250 g/ha ([4]; 250 g ai/ha) was 30%, the pest or weed control at 31 g/ha ([5]; 31 g ai/ha) was 100% and the pest or weed control at 62 g/ha ([5]; 62 g ai/ha) was 75%. It also gave a pest or weed control at 125 g/ha ([5]; 125 g ai/ha) of 100%, a pest or weed control at 250 g/ha ([5]; 250 g ai/ha) of 100% and a plant injury at 31 g/ha ([6]; 31 g ai/ha) of 10%. It also gave a plant injury at 62 g/ha ([6]; 62 g ai/ha) of 20%, a plant injury at 125 g/ha ([6]; 125 g ai/ha) of 20% and a plant injury at 250 g/ha ([6]; 250 g ai/ha) of 35%. For the same compound, the plant injury at 31 g/ha ([7]; 31 g ai/ha) was 10%, the plant injury at 62 g/ha ([7]; 62 g ai/ha) was 15% and the plant injury at 125 g/ha ([7]; 125 g ai/ha) was 15%. The plant injury at 250 g/ha ([7]; 250 g ai/ha) was 25%, the pest or weed control at 31 g/ha ([8]; 31 g ai/ha) was 80% and the pest or weed control at 62 g/ha ([8]; 62 g ai/ha) was 100%. It also gave a pest or weed control at 125 g/ha ([8]; 125 g ai/ha) of 100%, a pest or weed control at 250 g/ha ([8]; 250 g ai/ha) of 100% and a pest or weed control at 31 g/ha ([9]; 31 g ai/ha) of 35%. For the same compound, the pest or weed control at 62 g/ha ([9]; 62 g ai/ha) was 70%, the pest or weed control at 125 g/ha ([9]; 125 g ai/ha) was 80% and the pest or weed control at 250 g/ha ([9]; 250 g ai/ha) was 85%. The pest or weed control at 31 g/ha [10, 14] was 85%, the pest or weed control at 62 g/ha [10, 15] was 90% and the pest or weed control at 125 g/ha [10, 16] was 95%. The pest or weed control at 250 g/ha [10, 17] was 100%, the pest or weed control at 16 g/ha [10, 18] was 75% and the pest or weed control at 31 g/ha ([11]; 31 g ai/ha) was 65%. For the same compound, the pest or weed control at 62 g/ha ([11]; 62 g ai/ha) was 90%, the pest or weed control at 125 g/ha ([11]; 125 g ai/ha) was 90% and the pest or weed control at 250 g/ha ([11]; 250 g ai/ha) was 100%. The pest or weed control at 31 g/ha [12, 14] was 0%, the pest or weed control at 62 g/ha [12, 15] was 10% and the pest or weed control at 125 g/ha [12, 16] was 15%. For the same compound, the pest or weed control at 250 g/ha [12, 17] was 30%, the pest or weed control at 16 g/ha [12, 18] was 0% and the pest or weed control at 31 g/ha [13, 14] was 60%. The pest or weed control at 62 g/ha [13, 15] was 65%, the pest or weed control at 125 g/ha [13, 16] was 70% and the pest or weed control at 250 g/ha [13, 17] was 80%. For the same compound, the pest or weed control at 16 g/ha [13, 18] was 50%.
